In one assay the test system is PBMC. Briefly: Gene transduction of PBMC with MS-MA24-siTCR retrovirus supernatants from producer cells cultured in the test media (CD8/MAGE-A4 tetramer flow cytometry). The format is cell-based, human. Particulars: Example 9; FIG. 8. An excerpt:
A HEK 293 T cell (ATCC CRL-11268) was transfected with the codon modified TCR and siRNA-coexpression retroviral vector (MS-MA24-siTCR) described in WO 2008/153029 using Retrovirus Packaging Kit Eco (manufactured by TAKARA BIO INC.) according to the manufacturer's protocol to obtain an ecotropic retrovirus supernatant. The virus supernatant was filtered with a 0.45 μm filter (Milex HV, manufactured by Millipore). A PG13 cell was infected with the filtrate by a method using polybrene, and then cloned by a limiting dilution method.
(§1) A working cell bank (WCB) prepared from the cloned cell obtained in Example 7-1 was thawed in a water bath at 37° C. The cell solution thus thawed was put into a 15 mL centrifuging tube. After addition of a complete medium [a DMEM medium (manufactured by Gibco) containing 10% fetal bovine serum (10% FBS, manufactured by SAFC Biosciences)], the tube was subjected to centrifugation (500×g, 5 minutes, 20° C.). After the centrifugation, a supernatant was removed, and the cells were suspended in 10 mL of the complete medium and then counted. After cell counting, the cell suspension was adjusted with the complete medium to 78.5×10^4 cells/mL. To a 100 mm dish for cell culture (manufactured by IWAKI) were added 1 mL of the cell suspension and 14.7 mL of the complete medium. The cell culture was carried out in a CO2 incubator (37° C., 95% of humidity, 5% CO2). […]
(In general: Flow cytometry measures light scatter and fluorescence of single cells or particles in a stream.)

For a further assay, the system named is retrovirus vector. Description: RNA copy number in retrovirus supernatant (Retrovirus Titer Set, real time PCR). Conditions: Example 9; FIG. 9. The protocol:
as §1, with “CO2). The cell was subcultured at intervals of 3 days.” for “CO2).”
The RNA copy number was determined using Retrovirus Titer Set (for Real Time PCR) (manufactured by TAKARA BIO INC.) according to a standard method described in the directions for use attached to the product.
The retrovirus producer cell as described in Example 7-1 was used to prepare virus supernatants. […] However, virus supernatants collected over 3 days were mixed and evaluated in this Example, whereas virus supernatants were collected over 4 days in Example 2-1.
A general note: Real-time PCR tracks product formation cycle by cycle.

With `CC(/C=C/C(=O)NO)=C\[C@@H](C)C(=O)c1ccc(N(C)C)cc1` [TSA, trichostatin A], the “gene transduction efficiency, TSA 500 nM compared with 50 nM” value in the assay with PBMC is “more effective”. In the assay on retrovirus vector, the “RNA copy number, TSA 500 nM compared with 50 nM” value is “more effective”.

For the origin of these results see patent publication US20130183719A1, “METHOD FOR PRODUCING VIRUS VECTOR” (priority 2010, published 2013).
